Earlier results as cited in patent US12648940B2, “Bupivacaine liquid formulations” (FRESENIUS KABI AUSTRIA GMBH, priority 2023, dated 2026).

CCCCN1CCCCC1C(=O)Nc1c(C)cccc1C (centres unmarked) [Bupivacaine, 1-butyl-N-(2,6-dimethylphenyl)piperidine-2-carboxamide]
pKa: approximately 8.1 | pKa of the amine of the piperidine group (at 25° C.): ~8.1
